In patent US20200023001A1, “GlycoFix (Structurally And Functionally Repaired Endothelial Glycocalyx)” (Northeastern University, priority 2018, published 2020):

Test system: heparan sulfate (HS) of RFPEC glycocalyx
Assay: HS expression (coverage) in RFPEC glycocalyx by immunofluorescence confocal microscopy (Example 1)
Type: cell-based, rat
Description: Cell Culture. Rat fat pad ECs (RFPEC) at passages 20 to 39 were offspring of cells isolated from rat epididymal fat pad and provided by Dr. Mia Thi of Albert Einstein College of Medicine (Bronx, N.Y.). […] The RFPECs are immortalized, making it possible to use late passages. RFPEC were seeded on 12-14-mm diameter and 0.13-0.17-mm thick glass coverslips at a seeding density of 15,000-20,000 cells/cm^2. Cells were cultured in Dulbecco's Modified Eagle Medium (DMEM, Invitrogen, USA) with 1% penicillin-streptomycin (PS) and 10% fetal bovine serum (FBS, Gibco Life Technologies). Cells were maintained in humidity at 37° C. and 5% CO2. RFPECs reached full confluence in 3 days.
Cultured RFPECs produce thick and robust GCX in this time period. At 3 days post-seeding the RFPECs' culture medium was supplemented with 1% BSA in place of FBS to stabilize the GCX during preservation and immunolabeling (described below). For enzyme treatment experiments, 25 micro-international units per milliliter (μIU/ml) of heparinase III (Hep III; IBEX, Canada) were added to BSA-containing culture media for 2 hours to degrade HS from the GCX [46]. HepIII was washed out, and the wash-out was followed by a 16-hour incubation of RFPECs in regular BSA-containing media. In self-recovery experiments, RFPEC GCX was left to recover for 24 hours after enzyme degradation. The time frame was chosen in accordance with the 20-hour time period that is required for HS restoration to occur on the surface of ECs. For HS recovery experiments, exogenous HS and/or S1P were applied for 16 hours to accommodate the communication test as an assessment of functional glycocalyx recovery. […] After HS was degraded with HepIII, it was replaced by a 16-hour feeding of RFPECs with 59 μg/ml exogenous porcine mucosal HS (Celsus, Cincinnati, Ohio), based on published serum concentration of HS [43]. In sphingosine-1-phosphate experiments, culture media containing enzyme was substituted for media containing either 10 μM of S1P (Sigma-Aldrich) or a combination of 59 μg/ml of HS and 10 μM of S1P for 16 hours after enzyme degradation.
Immunostaining. RFPECs have high affinity to most antibodies that are available for performing immunocytochemistry. For heparan sulfate (HS), RFPEC monolayers were treated with 2% paraformaldehyde/1% glutaraldehyde in phosphate buffered saline (PBS) for fixation, treated with 2% goat serum in PBS to block non-specific ligands, and stained for three nights at 4° C. with a 1:100 10E4-epitope HS antibody (Amsbio).
As specified by the manufacturer, the HS antibody reacts with many types of heparan sulfate. The reactivity of the HS antibody is abolished after treatment with Hep III, indicating antibody specificity. […]

## heparan sulfate [HS]
25 μIU/ml Hep III, HS 59 μg/ml, S1P 10 μM
  HS expression in GCX, result in words (FIG. 2 legend): significant recovery of HS back to baseline conditions
RFPEC, Hep III 2 hours, probed 16 hours after, with or without 59 μg/ml exogenous HS and/or 10 μM S1P for the 16 hours, mean±SEM
  HS coverage of cell surfaces: 65.58±2.26%
